Here are results for five compounds from patent US20250304538A1, “PROCESS OF PREPARING REMIBRUTINIB SUBSTANTIALLY FREE OF NITROSAMINE IMPURITY” (NOVARTIS AG, priority 2024, published 2025).

Data set [1] is described as follows: Stability of intermediate F8: nitrosamine content overtime (air exposure, storage). It is filed as physicochemical. The note with it: upon exposure to the air or upon storage.
Experimental: • Limit-test by LC-MS (SIM mode), AJS-ES, positive mode, SIM Ion: 483.2 [M+H]+ • Column: YMC-Triart C18, 100×3.0 mm, particle size 1.9 μm, 12 nm • Mobile phase A: Dissolve 0.315 g of Ammonium formate in 1000 mL of water, add 0.5 mL of formic acid • Mobile phase B: Methanol • Sample solvent: Methanol+0.2% (v/v) Formic acid • Sample solution: approx. 100 mg of the sample in 20 mL • Flow: 0.6 mL/min • Injection volume: 3 μL • Autosampler cooled, 8° C. • Column temperature. 80° C.
Same method was used to determine the level of nitrosamine content in intermediate F8, in salts or in solvate of LOU064.
The content of nitrosamine in intermediate F8 was determined using method described in Example 1.
Data set [2] is described as follows: Accelerated predictive stability (APS) of LOU064 drug substance, open dish. It is filed as physicochemical. Particulars: all APS open dish conditions. The procedure: In order to assess the stability behavior of the nitrosamine impurity (N-(3-(6-amino-5-(2(methyl)(nitroso)amino)ethoxy)pyrimidin-4-yl)-5-fluoro-2-methylphenyl)-4-cyclopropyl-2-fluorobenzamide) in LOU064 drug substance, an accelerated predictive stability (APS) was performed.
A statistical based approach, Accelerated Predictive Stability (APS), using the humidity modified Arrhenius equation [Waterman and al., International Journal of Pharmaceutics 293 (1-2), 101-125 (2005)] is applied to understand stability behavior and predict the retest period. […] Short studies are conducted on open dish samples of representative batch (es) of drug substance at accelerated conditions using a wide range of temperatures and humidity with the goal of reaching the specification limit for the identified retest period limiting attributes at each condition as detailed below. […] The humidity corrected Arrhenius equation reflects both the influence of the temperature, and the moisture on the kinetics of the degradation product formation. The resulting open-dish data are fitted to a humidity-corrected Arrhenius equation^1 using ASAPprime® (current version 6.0): […]
3 batches of LOU064 drug substance were placed in open dish under the protocol summarized below:
(§1) The pulled samples were analyzed by HPLC-MS as per method described in example 1 and reported below in tables 9 and 10.

Data set [3] in a line: APS of LOU064 drug substance, closed container with or without nitrogen purge. The data set is classed as physicochemical. Particulars: 60-80 °C, up to 27 days. Here is the method:
Samples of batches of LOU064 drug substance were prepared in duplicated in closed container, with one sample being purged with nitrogen and the other not.
as §1

Data set [4] deals with Salmonella typhimurium strains TA98, TA100, TA1535 and TA1537. Nature of the data set: Enhanced Ames Test (EAT), pre-incubation method, Salmonella strains. The data set is classed as cell-based. The procedure:
N-(3-(6-amino-5-(2(methyl)(nitroso)amino)ethoxy)pyrimidin-4-yl)-5-fluoro-2-methylphenyl)-4-cyclopropyl-2-fluorobenzamide was evaluated in the EAT performed under GLP following the EMA and FDA guidance (2023) for the EAT conditions for N-nitrosamines.
In this study N-(3-(6-amino-5-(2(methyl)(nitroso)amino)ethoxy)pyrimidin-4-yl)-5-fluoro-2-methylphenyl)-4-cyclopropyl-2-fluorobenzamide was evaluated for mutations in Salmonella typhimurium strains TA98, TA100, TA1535 and TA1537 and Escherichia coli strain WP2 uvrA pKM101, both in the absence and presence of 30% rat and hamster metabolic activation (β-naphthoflavone/phenobarbital-induced rat and hamster liver post-mitochondrial S-9 fraction). The test used pre-incubation method (30 minutes). N-(3-(6-amino-5-(2(methyl)(nitroso)amino)ethoxy)pyrimidin-4-yl)-5-fluoro-2-methylphenyl)-4-cyclopropyl-2-fluorobenzamide was formulated in dimethyl sulfoxide (DMSO) at concentrations of 5, 16, 50, 160, 500, 1600 and 5000 μg/plate.

SMILES strings stand for the structures. “Also recorded” adds a separate entry of the source.

Take `CNCCOc1c(N)ncnc1-c1cc(F)cc(NC(=O)c2ccc(C3CC3)cc2F)c1C` [F8]: the “content of nitrosamine in intermediate F8 (trend)” value in data set [1] is on record as “increased overtime”.

Regarding `C=CC(=O)N(C)CCOc1c(N)ncnc1-c1cc(F)cc(NC(=O)c2ccc(C3CC3)cc2F)c1C` [LOU064 drug substance, N-(3-(6-Amino-5-(2-(N-methylacrylamido)ethoxy)pyrimidin-4-yl)-5-fluoro-2-methylphenyl)-4-cyclopropyl-2-fluorobenzamide], the “stability behavior of the nitrosamine impurity (in words)” value in data set [2] is reported as “stable”. Further, the “nitrosamine, stored closed under nitrogen versus closed without nitrogen (in words)” value in data set [3] is “no difference observed beyond analytical variability”.

`CN(CCc1ccccc1)N=O` [MNPA, N-methyl-N-nitroso-(2-phenylethyl)amine, reference compound]: the “Increases (mutations)” value in data set [4] (strain TA98, presence of hamster S-9) was “up to 1.9”.

Take `Cc1c(NC(=O)c2ccc(C3CC3)cc2F)cc(F)cc1-c1ncnc(N)c1OCCN(C)N=O` [N-(3-(6-amino-5-(2(methyl)(nitroso)amino)ethoxy)pyrimidin-4-yl)-5-fluoro-2-methylphenyl)-4-cyclopropyl-2-fluorobenzamide]: the mutagenicity entry in data set [4] (in the presence of rat S-9) and in data set [4] (without metabolic activation) was “not mutagenic” in each case. Besides, in data set [4] (overall conclusion of the EAT), the “Enhanced Ames Test (EAT) outcome” value was “positive; also recorded: mutagenic under sensitive metabolic conditions”. Moreover, the “increases in revertant numbers” value was found to be 2 fold in data set [4] (strain TA100, presence of hamster S-9) and 3 fold in data set [4] (strain TA1535, presence of hamster S-9).

Turning to `CCN(CC)N=O` [NDEA, N-nitrosodiethylamine, reference compound], the induced mutations in data set [4] (strain TA100, presence of 30% rat S-9) is more than 2 fold.
